Results as given in patent US12157741B2, “Macrocyclic inhibitors of DYRK1A” (DANA-FARBER CANCER INSTITUTE, INC., priority 2018, dated 2024).
Like-named read-outs stand apart in the source and are kept apart here.

How the values were obtained:
Type in all cases: binding
[1] = target: various enzymes (Homo sapiens, UniProt Q13163); conditions: compound 1 uM
Experimental: (§1) Ambit profiling was conducted in accordance with the manufacturer's instructions.

[2] = target: various enzymes (Homo sapiens, UniProt O15264); conditions: compound 1 uM
Experimental: as §1

[3] = target: various enzymes (Homo sapiens, UniProt P42336, Q546K)
Experimental: as §1

[4] = target: various enzymes (Homo sapiens, UniProt Q9BZL6); conditions: compound 1 uM
Experimental: as §1

[5] = target: various enzymes (Homo sapiens, UniProt Q04771); conditions: compound 1 uM
Experimental: as §1

[6] = target: various enzymes (Homo sapiens, UniProt P08922); conditions: compound 1 uM
Experimental: as §1

[7] = target: various enzymes (Homo sapiens, UniProt P37173); conditions: compound 1 uM
Experimental: as §1

[8] = target: various enzymes (Homo sapiens, UniProt P10721, A829P)
Experimental: as §1

[9] = target: various enzymes (Homo sapiens, UniProt Q9UM73); conditions: compound 1 uM
various enzymes (Homo sapiens, UniProt Q9UM73), sequence (Q9UM73 19-1620): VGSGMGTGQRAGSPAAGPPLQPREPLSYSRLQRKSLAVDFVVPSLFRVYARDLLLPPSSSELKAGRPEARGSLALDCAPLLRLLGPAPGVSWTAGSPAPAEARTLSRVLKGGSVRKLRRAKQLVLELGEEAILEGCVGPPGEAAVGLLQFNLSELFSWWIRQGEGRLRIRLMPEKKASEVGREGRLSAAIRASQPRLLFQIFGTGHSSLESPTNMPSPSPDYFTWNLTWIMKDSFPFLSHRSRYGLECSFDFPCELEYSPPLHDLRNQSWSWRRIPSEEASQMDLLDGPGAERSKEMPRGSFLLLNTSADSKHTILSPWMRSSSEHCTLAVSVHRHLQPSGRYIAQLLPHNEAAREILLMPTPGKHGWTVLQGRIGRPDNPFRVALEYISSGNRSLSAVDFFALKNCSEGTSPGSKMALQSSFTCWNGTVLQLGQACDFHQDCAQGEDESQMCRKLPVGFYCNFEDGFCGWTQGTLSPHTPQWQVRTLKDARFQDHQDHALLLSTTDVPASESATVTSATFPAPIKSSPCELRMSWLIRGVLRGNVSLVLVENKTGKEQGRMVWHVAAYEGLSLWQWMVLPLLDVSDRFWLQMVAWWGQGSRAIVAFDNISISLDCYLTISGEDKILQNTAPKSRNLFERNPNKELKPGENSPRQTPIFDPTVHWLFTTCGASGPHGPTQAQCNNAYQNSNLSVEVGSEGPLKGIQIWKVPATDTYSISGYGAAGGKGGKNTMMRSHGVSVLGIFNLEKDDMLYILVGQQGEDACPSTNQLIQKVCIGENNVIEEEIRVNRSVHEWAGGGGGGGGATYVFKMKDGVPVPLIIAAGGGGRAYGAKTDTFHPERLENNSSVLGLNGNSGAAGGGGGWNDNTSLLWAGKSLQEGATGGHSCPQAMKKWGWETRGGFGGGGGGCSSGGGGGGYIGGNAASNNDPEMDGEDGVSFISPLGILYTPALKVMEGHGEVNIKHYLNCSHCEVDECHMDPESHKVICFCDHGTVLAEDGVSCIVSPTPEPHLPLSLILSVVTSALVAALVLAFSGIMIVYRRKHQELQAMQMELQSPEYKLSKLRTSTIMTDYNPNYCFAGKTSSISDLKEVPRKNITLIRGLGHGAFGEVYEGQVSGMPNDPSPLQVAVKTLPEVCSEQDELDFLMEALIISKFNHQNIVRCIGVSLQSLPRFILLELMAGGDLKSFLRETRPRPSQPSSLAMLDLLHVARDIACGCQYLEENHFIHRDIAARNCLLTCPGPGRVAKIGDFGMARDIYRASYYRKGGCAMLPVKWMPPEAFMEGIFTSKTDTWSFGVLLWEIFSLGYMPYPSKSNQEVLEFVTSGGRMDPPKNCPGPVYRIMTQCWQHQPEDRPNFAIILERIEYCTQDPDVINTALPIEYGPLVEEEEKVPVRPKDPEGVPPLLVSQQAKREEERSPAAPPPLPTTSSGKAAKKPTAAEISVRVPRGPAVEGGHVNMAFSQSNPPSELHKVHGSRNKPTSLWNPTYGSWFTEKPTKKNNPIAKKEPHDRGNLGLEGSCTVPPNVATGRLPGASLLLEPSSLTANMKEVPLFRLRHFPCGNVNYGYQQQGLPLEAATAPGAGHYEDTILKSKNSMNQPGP
Experimental: as §1

[10] = target: various enzymes (Homo sapiens, UniProt P04626); conditions: compound 1 uM
Experimental: as §1

[11] = target: various enzymes (Homo sapiens, UniProt P00519, T315I)
Experimental: as §1

[12] = target: various enzymes (Homo sapiens, UniProt P42681); conditions: compound 1 uM
various enzymes (Homo sapiens, UniProt P42681), sequence (P42681 whole entry): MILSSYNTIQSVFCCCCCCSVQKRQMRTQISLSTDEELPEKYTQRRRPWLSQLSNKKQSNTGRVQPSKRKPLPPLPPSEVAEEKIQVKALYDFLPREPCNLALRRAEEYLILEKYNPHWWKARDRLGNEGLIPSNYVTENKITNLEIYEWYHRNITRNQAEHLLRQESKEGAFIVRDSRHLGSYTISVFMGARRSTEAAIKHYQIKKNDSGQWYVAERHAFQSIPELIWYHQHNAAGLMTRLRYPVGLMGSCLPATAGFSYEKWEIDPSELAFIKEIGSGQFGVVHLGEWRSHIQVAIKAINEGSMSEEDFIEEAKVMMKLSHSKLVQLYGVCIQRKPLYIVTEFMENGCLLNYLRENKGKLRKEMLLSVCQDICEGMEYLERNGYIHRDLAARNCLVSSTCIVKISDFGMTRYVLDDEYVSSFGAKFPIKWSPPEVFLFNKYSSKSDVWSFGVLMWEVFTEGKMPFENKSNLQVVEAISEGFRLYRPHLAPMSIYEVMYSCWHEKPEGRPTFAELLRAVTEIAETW
Experimental: as §1

[13] = target: various enzymes (Homo sapiens, UniProt Q9UQB9); conditions: compound 1 uM
Experimental: as §1

[14] = target: T1, various enzymes (Homo sapiens, UniProt Q9H093); conditions: compound 1 uM
T1 sequence (Q9H093 1-628): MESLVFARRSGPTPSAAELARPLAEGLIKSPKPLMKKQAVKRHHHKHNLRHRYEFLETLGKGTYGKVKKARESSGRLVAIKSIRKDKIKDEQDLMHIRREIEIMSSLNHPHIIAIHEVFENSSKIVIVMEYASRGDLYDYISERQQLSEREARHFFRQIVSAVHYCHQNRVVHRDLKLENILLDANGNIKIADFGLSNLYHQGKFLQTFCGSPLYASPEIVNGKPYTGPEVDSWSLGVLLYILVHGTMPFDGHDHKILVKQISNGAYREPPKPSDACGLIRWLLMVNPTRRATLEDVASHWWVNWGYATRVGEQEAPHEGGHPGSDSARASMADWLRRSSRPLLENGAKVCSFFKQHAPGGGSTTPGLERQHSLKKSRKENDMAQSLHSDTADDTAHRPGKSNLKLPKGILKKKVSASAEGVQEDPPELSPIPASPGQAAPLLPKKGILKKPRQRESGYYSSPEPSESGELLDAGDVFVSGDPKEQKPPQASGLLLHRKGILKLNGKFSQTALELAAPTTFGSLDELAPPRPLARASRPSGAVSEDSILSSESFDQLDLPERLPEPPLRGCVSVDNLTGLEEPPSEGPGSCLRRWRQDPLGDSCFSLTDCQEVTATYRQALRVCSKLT
Experimental: as §1

[15] = target: various enzymes (Homo sapiens, UniProt P49841); conditions: compound 1 uM
Experimental: as §1

[16] = target: various enzymes (Homo sapiens, UniProt Q15349); conditions: compound 1 uM
various enzymes (Homo sapiens, UniProt Q15349), sequence (Q15349 whole entry): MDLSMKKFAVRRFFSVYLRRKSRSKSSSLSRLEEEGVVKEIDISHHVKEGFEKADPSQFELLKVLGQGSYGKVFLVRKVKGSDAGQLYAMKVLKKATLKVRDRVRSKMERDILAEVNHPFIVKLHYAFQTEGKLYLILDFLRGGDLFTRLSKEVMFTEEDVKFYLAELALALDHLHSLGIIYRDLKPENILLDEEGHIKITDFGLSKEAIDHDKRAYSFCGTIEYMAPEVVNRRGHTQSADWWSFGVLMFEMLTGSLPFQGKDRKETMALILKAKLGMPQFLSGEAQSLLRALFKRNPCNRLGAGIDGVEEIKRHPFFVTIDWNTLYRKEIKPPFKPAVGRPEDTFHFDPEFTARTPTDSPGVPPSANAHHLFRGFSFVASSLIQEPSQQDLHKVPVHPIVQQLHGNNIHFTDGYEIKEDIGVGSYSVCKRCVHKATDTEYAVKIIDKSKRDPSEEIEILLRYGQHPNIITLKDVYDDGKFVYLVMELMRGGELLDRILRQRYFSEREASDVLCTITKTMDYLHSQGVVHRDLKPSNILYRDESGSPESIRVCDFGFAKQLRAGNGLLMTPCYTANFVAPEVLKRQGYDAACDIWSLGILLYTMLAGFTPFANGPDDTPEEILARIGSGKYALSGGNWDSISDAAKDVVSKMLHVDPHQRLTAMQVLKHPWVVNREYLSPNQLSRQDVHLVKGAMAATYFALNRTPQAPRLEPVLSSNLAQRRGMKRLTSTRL
Experimental: as §1

[17] = target: various enzymes (Homo sapiens, UniProt Q8NE63); conditions: compound 1 uM
Experimental: as §1

[18] = target: various enzymes (Homo sapiens, UniProt O75582); conditions: compound 1 uM
various enzymes (Homo sapiens, UniProt O75582), sequence (O75582 whole entry): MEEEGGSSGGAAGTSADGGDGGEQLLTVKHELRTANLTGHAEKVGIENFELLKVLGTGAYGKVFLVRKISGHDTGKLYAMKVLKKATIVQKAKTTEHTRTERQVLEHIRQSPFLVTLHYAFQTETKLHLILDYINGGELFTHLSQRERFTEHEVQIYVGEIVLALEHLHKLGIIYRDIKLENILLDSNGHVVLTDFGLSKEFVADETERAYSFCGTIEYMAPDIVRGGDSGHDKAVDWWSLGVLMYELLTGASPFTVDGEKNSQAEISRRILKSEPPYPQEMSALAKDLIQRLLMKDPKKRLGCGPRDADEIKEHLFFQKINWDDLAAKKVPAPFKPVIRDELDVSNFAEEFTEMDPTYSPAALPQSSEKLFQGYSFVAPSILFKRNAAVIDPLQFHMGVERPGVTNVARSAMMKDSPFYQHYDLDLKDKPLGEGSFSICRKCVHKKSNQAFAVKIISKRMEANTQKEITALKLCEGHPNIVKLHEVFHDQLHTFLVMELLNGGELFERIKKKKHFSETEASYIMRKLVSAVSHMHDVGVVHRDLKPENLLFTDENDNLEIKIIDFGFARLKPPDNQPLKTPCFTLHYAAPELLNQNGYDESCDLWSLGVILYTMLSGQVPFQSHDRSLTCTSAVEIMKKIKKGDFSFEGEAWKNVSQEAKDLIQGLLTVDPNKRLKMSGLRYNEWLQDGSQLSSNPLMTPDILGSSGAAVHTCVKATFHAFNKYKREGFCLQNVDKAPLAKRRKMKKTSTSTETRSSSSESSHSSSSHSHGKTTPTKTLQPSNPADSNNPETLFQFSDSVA
Experimental: as §1

[19] = target: T2, various enzymes (Homo sapiens, UniProt Q99640); conditions: compound 1 uM
T2 sequence (Q99640 1-499): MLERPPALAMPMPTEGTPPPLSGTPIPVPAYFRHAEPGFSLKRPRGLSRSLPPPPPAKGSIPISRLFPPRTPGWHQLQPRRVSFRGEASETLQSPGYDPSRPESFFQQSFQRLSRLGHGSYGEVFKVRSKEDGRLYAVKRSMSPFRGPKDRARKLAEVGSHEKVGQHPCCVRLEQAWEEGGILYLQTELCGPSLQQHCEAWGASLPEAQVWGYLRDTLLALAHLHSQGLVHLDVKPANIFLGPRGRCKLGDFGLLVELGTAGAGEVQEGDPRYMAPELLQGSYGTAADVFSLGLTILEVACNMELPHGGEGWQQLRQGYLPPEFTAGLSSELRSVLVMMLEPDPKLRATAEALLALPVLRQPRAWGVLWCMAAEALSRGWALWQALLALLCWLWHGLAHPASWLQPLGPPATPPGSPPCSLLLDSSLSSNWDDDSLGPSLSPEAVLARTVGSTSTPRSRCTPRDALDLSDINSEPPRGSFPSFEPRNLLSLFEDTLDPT
Experimental: as §1

[20] = target: various enzymes (Homo sapiens, UniProt Q9UF33); conditions: compound 1 uM
Experimental: as §1

[21] = target: various enzymes (Homo sapiens, UniProt Q15831); conditions: compound 1 uM
various enzymes (Homo sapiens, UniProt Q15831), sequence (Q15831 whole entry): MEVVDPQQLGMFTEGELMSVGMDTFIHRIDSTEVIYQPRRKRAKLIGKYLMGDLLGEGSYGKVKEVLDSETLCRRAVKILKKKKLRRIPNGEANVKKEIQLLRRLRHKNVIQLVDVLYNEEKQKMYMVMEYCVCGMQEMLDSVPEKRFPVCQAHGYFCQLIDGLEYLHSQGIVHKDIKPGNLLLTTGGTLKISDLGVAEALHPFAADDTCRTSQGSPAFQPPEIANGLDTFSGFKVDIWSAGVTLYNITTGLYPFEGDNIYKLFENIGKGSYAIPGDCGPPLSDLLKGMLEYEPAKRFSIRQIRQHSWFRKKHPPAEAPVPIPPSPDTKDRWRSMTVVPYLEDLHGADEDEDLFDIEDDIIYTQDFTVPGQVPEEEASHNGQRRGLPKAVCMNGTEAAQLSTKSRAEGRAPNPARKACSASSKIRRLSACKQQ
Experimental: as §1

[22] = target: various enzymes (Homo sapiens, UniProt P45983); conditions: compound 1 uM
Experimental: as §1

[23] = target: various enzymes (Homo sapiens, UniProt Q00532); conditions: compound 1 uM
various enzymes (Homo sapiens, UniProt Q00532), sequence (Q00532 whole entry): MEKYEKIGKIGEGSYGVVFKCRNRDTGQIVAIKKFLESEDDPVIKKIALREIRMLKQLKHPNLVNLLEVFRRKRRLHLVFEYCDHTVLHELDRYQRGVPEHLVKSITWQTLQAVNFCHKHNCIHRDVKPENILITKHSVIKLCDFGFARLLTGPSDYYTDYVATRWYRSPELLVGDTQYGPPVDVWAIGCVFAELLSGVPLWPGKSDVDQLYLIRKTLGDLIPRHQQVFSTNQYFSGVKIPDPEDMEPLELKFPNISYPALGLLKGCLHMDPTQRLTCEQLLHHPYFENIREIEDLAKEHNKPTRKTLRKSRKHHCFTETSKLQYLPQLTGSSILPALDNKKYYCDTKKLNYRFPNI
Experimental: as §1

[24] = target: various enzymes (Homo sapiens, UniProt Q9BRS2); conditions: compound 1 uM
Experimental: as §1

[25] = target: various enzymes (Homo sapiens, UniProt O14976); conditions: compound 1 uM
Experimental: as §1

[26] = target: various enzymes (Homo sapiens, UniProt P10721, V559D)
Experimental: as §1

[27] = target: various enzymes (Homo sapiens, UniProt O76039); conditions: compound 1 uM
Experimental: as §1

[28] = target: various enzymes (Homo sapiens, UniProt P37023); conditions: compound 1 uM
various enzymes (Homo sapiens, UniProt P37023), sequence (P37023 22-503): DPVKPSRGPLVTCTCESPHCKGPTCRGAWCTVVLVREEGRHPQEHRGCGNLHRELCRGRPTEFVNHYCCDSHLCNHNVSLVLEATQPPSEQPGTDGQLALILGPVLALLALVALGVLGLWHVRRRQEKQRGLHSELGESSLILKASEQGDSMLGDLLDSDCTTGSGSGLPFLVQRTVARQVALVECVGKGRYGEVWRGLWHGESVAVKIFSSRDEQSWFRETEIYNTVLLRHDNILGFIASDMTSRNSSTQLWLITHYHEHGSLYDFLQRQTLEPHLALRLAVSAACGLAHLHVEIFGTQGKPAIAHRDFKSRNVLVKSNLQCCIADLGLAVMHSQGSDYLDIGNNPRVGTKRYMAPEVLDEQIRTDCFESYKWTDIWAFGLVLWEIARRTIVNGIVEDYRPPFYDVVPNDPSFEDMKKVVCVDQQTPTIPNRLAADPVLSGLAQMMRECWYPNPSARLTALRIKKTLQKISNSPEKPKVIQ
Experimental: as §1

Structure (SMILES) | Ambit profiling: MEK5 [1] | Ambit profiling: p38-delta [2] | Ambit profiling: PRKD2 [4] | Ambit profiling: ACVR1 [5] | Ambit profiling: ROS1 [6] | Ambit profiling: TGFBR2 [7] | Ambit profiling: ALK [9] | Ambit profiling: ERBB2 [10] | Ambit profiling: TXK [12] | Ambit profiling: AURKC [13] | Ambit profiling: SNARK [14] | Ambit profiling: GSK3B [15] | Ambit profiling: RSK3(Kin.Dom.1-N-terminal) [16] | Ambit profiling: RSK3(Kin.Dom.2-C-terminal) [16] | Ambit profiling: HIPK4 [17] | Ambit profiling: RPS6KA5(Kin.Dom.1-N-terminal) [18] | Ambit profiling: RPS6KA5(Kin.Dom.2-C-terminal) [18] | Ambit profiling: PKMYT1 [19] | Ambit profiling: EPHA6 [20] | Ambit profiling: LKB1 [21] | also measured
CC(C)N1Cc2nn(C)cc2-c2cnc3[nH]cc(c3c2)-c2cn(nc2C(F)(F)F)CCCC1=O [Compound 45, (Z)-5-isopropyl-31-methyl-13-(trifluoromethyl)-11H,21H,31H-5-aza-2(3,5)-pyrrolo[2,3-b]pyridina-1(4,1),3(4,3)-dipyrazolacyclononaphan-6-one] | 11 | 100 | 43 | 18 | 11 | 91 | 18 | 100 | 15 | 20 | 14 | 24 | 4.7 | 96 | 2.1 | 70 | 100 | 92 | 18 | 100 | Ambit profiling: PIK3CA(Q546K) ([3]; compound 1 uM): 100; Ambit profiling: KIT(A829P) ([8]; compound 1 uM): 14; Ambit profiling: ABL1(T315I)-nonphosphorylated ([11]; compound 1 uM): 9.4; Ambit profiling: ABL1(T315I)-phosphorylated ([11]; compound 1 uM): 11; Ambit profiling: JNK1 [22]: 18; Ambit profiling: CDKL1 [23]: 39; Ambit profiling: RICK1 [24]: 1.4; Ambit profiling: GAK [25]: 5.7; Ambit profiling: KIT(V559D) ([26]; compound 1 uM): 3.2; Ambit profiling: CDKL5 [27]: 68; Ambit profiling: ACVRL1 [28]: 36
COc1c2c(nn1C)CN(C(C)C)C(=O)CCCn1cc(c(C(F)(F)F)n1)-c1c[nH]c3ncc-2cc13 [Compound 50, (Z)-5-isopropyl-35-methoxy-31-methyl-13-(trifluoromethyl)-11H,21H,31H-5-aza-2(3,5)-pyrrolo[2,3-b]pyridina-1(4,1),3(4,3)-dipyrazolacyclononaphan-6-one] | 0 | 99 | 55 | 14 | 5.1 | 20 | 21 | 86 | 3.2 | 39 | 47 | 90 | 4 | 80 | 1.5 | 18 | 72 | 86 | 14 | 33 | Ambit profiling: PIK3CA(Q546K) [3]: 86; Ambit profiling: KIT(A829P) [8]: 19; Ambit profiling: ABLT(T315I)-nonphosphorylated [11]: 8.8; Ambit profiling: ABLT(T315I)-phosphorylated [11]: 4.9; Ambit profiling: JNK1 [22]: 4.1; Ambit profiling: CDKL1 [23]: 51; Ambit profiling: RIOK1 [24]: 16; Ambit profiling: GAK [25]: 4; Ambit profiling: KIT(V559D) [26]: 0.95; Ambit profiling: CDKL5 [27]: 100; Ambit profiling: ACVRL1 [28]: 67
